Experimental data: ChEMBL document CHEMBL1201862, “PubChem BioAssay data set” (2004)
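Protocol summary: plate cells (96-well), add compound at 5 concentrations, incubate 48 h, interpolate endpoints linearly. GI50: concentration for 50% inhibition of growth.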 Calls of active or inactive are those of the source. Cut-off read from the data, not from the text of the source: active = GI50 up to about 1.1 µM and inactive = higher.

Columns and labels:
Assay in all cases: NCI anticancer screen, dose series, 48 h
HCT-116 = test system: HCT-116
LOX IMVI = test system: LOX IMVI
Malme-3M = test system: Malme-3M
SF-539 = test system: SF-539
HOP-92 = test system: HOP-92
SN12C = test system: SN12C
NCI-H522 = test system: NCI-H522
M14 = test system: M14
CCRF-CEM = test system: CCRF-CEM
HCC 2998 = test system: HCC 2998
SF-295 = test system: SF-295
KM-20L2 = test system: KM-20L2
786-0 = test system: 786-0
SR = test system: SR
SNB-75 = test system: SNB-75
SK-MEL-5 = test system: SK-MEL-5
SW-620 = test system: SW-620
A498 = test system: A498

Measured: GI50

[O-]c1c2c(nn1-c1ccccc1)c1ccccc1c[n+]2Cc1ccccc1
inactive: HCT-116 > 100 µM | LOX IMVI > 100 µM | Malme-3M > 100 µM | SF-539 > 100 µM | HOP-92 > 100 µM | SN12C > 100 µM | NCI-H522 73.6 µM | M14 > 100 µM | CCRF-CEM > 100 µM | HCC 2998 > 100 µM | SF-295 > 100 µM | KM-20L2 > 100 µM | 786-0 > 100 µM | SR > 100 µM | SNB-75 50.4 µM | SK-MEL-5 > 100 µM | SW-620 > 100 µM

C[N+](C)(C)CC1CCCCC1=O (stereo unspecified)
inactive: HCT-116 17.7 µM | LOX IMVI 14 µM | Malme-3M 19.6 µM | SF-539 > 100 µM | SN12C > 100 µM | NCI-H522 19.1 µM | M14 16.6 µM | CCRF-CEM 4.56 µM | SF-295 > 100 µM | KM-20L2 2 µM | 786-0 > 100 µM | SNB-75 20.5 µM | SK-MEL-5 25.2 µM | SW-620 8.49 µM

c1ccc(OC2=NC3=S(S2)SC(Oc2ccccc2)=N3)cc1
inactive: HCT-116 17.5 µM | LOX IMVI 19.6 µM | Malme-3M 18.3 µM | SF-539 22.3 µM | SN12C 20.6 µM | NCI-H522 16.4 µM | A498 25.1 µM | M14 18.4 µM | CCRF-CEM 9.59 µM | HCC 2998 19.5 µM | SF-295 17 µM | KM-20L2 22.3 µM | 786-0 15.5 µM | SNB-75 24.3 µM | SK-MEL-5 18 µM | SW-620 15 µM

CC(=O)Nc1ccc(C(=O)NN2C(=O)C(Cl)C2c2ccccc2)cc1 (stereo unspecified)
inactive: HCT-116 > 100 µM | LOX IMVI > 100 µM | Malme-3M > 100 µM | SF-539 > 100 µM | HOP-92 > 100 µM | SN12C > 100 µM | NCI-H522 > 100 µM | A498 > 100 µM | M14 > 100 µM | CCRF-CEM > 100 µM | SF-295 > 100 µM | KM-20L2 > 100 µM | 786-0 > 100 µM | SNB-75 > 100 µM | SK-MEL-5 > 100 µM | SW-620 > 100 µM

COc1ccc(C(=O)O/N=C2\CCCC\C2=C/c2ccccc2)cc1
inactive: HCT-116 > 100 µM | LOX IMVI > 100 µM | SF-539 27.5 µM | SN12C > 100 µM | A498 74.8 µM | M14 > 100 µM | CCRF-CEM > 100 µM | HCC 2998 > 100 µM | KM-20L2 > 100 µM | 786-0 33.8 µM | SNB-75 28.4 µM | SK-MEL-5 > 100 µM | SW-620 > 100 µM

COc1ccc(CNc2nc3ccc(C(F)(F)F)cc3nc2-c2ccccc2)cc1OC
inactive: HCT-116 20.7 µM | LOX IMVI 36.8 µM | Malme-3M 73.5 µM | SF-539 54.3 µM | HOP-92 2.9 µM | SN12C 46.2 µM | CCRF-CEM 9.91 µM | HCC 2998 13.9 µM | SF-295 42.9 µM | KM-20L2 47.6 µM | 786-0 > 10 µM | SR 6.64 µM | SNB-75 11 µM | SW-620 > 100 µM

CC#COP(=O)(OCC)OCC
inactive: HCT-116 > 100 µM | LOX IMVI > 100 µM | Malme-3M > 100 µM | SF-539 > 100 µM | SN12C > 100 µM | NCI-H522 > 100 µM | A498 39.5 µM | M14 > 100 µM | CCRF-CEM 75 µM | HCC 2998 > 100 µM | SF-295 > 100 µM | KM-20L2 > 100 µM | 786-0 > 100 µM | SR 64.6 µM | SK-MEL-5 > 100 µM | SW-620 > 100 µM

C[C@@]12[Se]c3ccccc3[C@]1(C)[Se]c1ccccc12
inactive: HCT-116 > 100 µM | LOX IMVI 5.89 µM | Malme-3M > 100 µM | HOP-92 4.79 µM | SN12C > 100 µM | NCI-H522 4.05 µM | M14 > 100 µM | CCRF-CEM 4.39 µM | HCC 2998 6.47 µM | SF-295 38.7 µM | KM-20L2 > 100 µM | 786-0 4.85 µM | SNB-75 2.57 µM | SK-MEL-5 4.21 µM | SW-620 3.27 µM

CCC(C)(O)c1cn(-c2ccc(S(=O)(=O)O)cc2)nn1 (stereo unspecified)
inactive: HCT-116 > 100 µM | LOX IMVI > 100 µM | Malme-3M > 100 µM | SF-539 > 100 µM | HOP-92 > 100 µM | SN12C > 100 µM | NCI-H522 > 100 µM | A498 > 100 µM | M14 > 100 µM | CCRF-CEM > 100 µM | HCC 2998 > 100 µM | SF-295 > 100 µM | KM-20L2 > 100 µM | 786-0 > 100 µM | SNB-75 > 100 µM | SK-MEL-5 > 100 µM | SW-620 > 100 µM

COc1ccc2c(c1)Cc1c-2[nH]c2cc3c(cc2c1=O)OCO3
inactive: HCT-116 6.56 µM | LOX IMVI 14.5 µM | Malme-3M 13.7 µM | SF-539 14.3 µM | HOP-92 17.7 µM | SN12C 30.7 µM | NCI-H522 10.8 µM | M14 14.2 µM | CCRF-CEM 4.33 µM | HCC 2998 11.6 µM | SF-295 16.3 µM | KM-20L2 14.7 µM | 786-0 20.2 µM | SK-MEL-5 6.21 µM | SW-620 27.5 µM

O=C1C(Cl)C(c2cccc([N+](=O)[O-])c2)N1n1cnc2ccccc2c1=O (stereo unspecified)
inactive: HCT-116 37.8 µM | LOX IMVI > 100 µM | Malme-3M > 100 µM | SN12C > 100 µM | NCI-H522 46.3 µM | M14 > 100 µM | CCRF-CEM > 10 µM | HCC 2998 > 100 µM | SF-295 > 100 µM | KM-20L2 85.7 µM | 786-0 > 100 µM | SR 19.1 µM | SNB-75 65.8 µM | SK-MEL-5 > 100 µM | SW-620 > 100 µM

CCCC(=O)Nc1ccc(O)c2c1C1CCCCCC21 (stereo unspecified)
inactive: HCT-116 85.3 µM | LOX IMVI > 100 µM | Malme-3M > 100 µM | SN12C > 100 µM | NCI-H522 75.5 µM | M14 > 100 µM | CCRF-CEM > 100 µM | SF-295 50.2 µM | KM-20L2 > 100 µM | 786-0 > 100 µM | SR 82.2 µM | SNB-75 72.3 µM | SK-MEL-5 72.4 µM | SW-620 > 100 µM

CN1CCN(c2nc(N)c(Br)c(Cl)n2)CC1
inactive: LOX IMVI > 100 µM | Malme-3M > 100 µM | HOP-92 54.3 µM | SN12C > 100 µM | NCI-H522 > 100 µM | M14 > 100 µM | CCRF-CEM > 100 µM | HCC 2998 > 100 µM | SF-295 > 100 µM | KM-20L2 > 100 µM | 786-0 > 100 µM | SNB-75 58.3 µM | SK-MEL-5 > 100 µM | SW-620 > 100 µM
